Measurements as given in patent publication US12319648B2, “Fluorinated phenylacetic acid derivatives in a weed control method” (SYNGENTA CROP PROTECTION AG, priority 2019, dated 2025).

Key:
Assay type in all cases: in vivo
[1] = test system: Echinochloa crus-galli (ECHCG); assay: Post-emergence herbicidal glasshouse test; conditions: post-emergence, 250 g/ha, 13 days after application
Protocol: (§1) Seeds of a variety of test species are shown in standard soil in pots Amaranthus retoflexus (AMARE), Ipomoea hederacea (IPOHE), Solanum nigrum (SOLNI), Lolium perenne (LOLPE). Echinochloa crus-galli (ECHCG), Setaria faberi (SETFA)). After cultivation for one day (pre-emergence) or after 8 days cultivation (post-emergence) under controlled conditions in a glasshouse (at 24/16° C., day/night; 14 hours light; 65% humidity), the plants are sprayed with an aqueous spray solution derived from the formulation of the technical active ingredient in acetone/water (50:50) solution containing 0.5% Tween 20 (polyoxyethylene sorbitan monolaurate, CAS RN 9005-64-5). Compounds are applied at 250 g/ha unless otherwise stated. The test plants are then grown in a glasshouse under controlled conditions in a glasshouse (at 24/16° C., day/night; 14 hours light; 65% humidity) and watered twice daily. After 13 days for pre and post-emergence, the test is evaluated for the percentage damage caused to the plant. The biological activities are shown in the following table on a five-point scale (5=81-100%; 4=61-80%; 3=41-60%; 2=21-40%; 1=0-20%).
(§2) Using the experimental conditions outlined above, a further test is conducted to compare the herbicidal properties of the difluro containing compound (1.014) with a representative compound (C1) referred to in GB901553. The compounds are applied at 1000 g/ha and 500 g/ha. The test is evaluated for the percentage damage caused to the plant (% phytotoxicity).

[2] = test system: Ipomoea hederacea (IPOHE); assay: Post-emergence herbicidal glasshouse test; conditions: post-emergence, 250 g/ha, 13 days after application
Protocol: as §1, §2

[3] = test system: Amaranthus retoflexus (AMARE); assay: Post-emergence herbicidal glasshouse test; conditions: post-emergence, 250 g/ha, 13 days after application
Protocol: as §1, §2

Solanum nigrum (SOLNI) [4] = assay: Post-emergence herbicidal glasshouse test; conditions: post-emergence, 250 g/ha, 13 days after application
Protocol: as §1, §2

Lolium perenne (LOLPE) [5] = assay: Post-emergence herbicidal glasshouse test; conditions: post-emergence, 250 g/ha, 13 days after application
Protocol: as §1, §2

Setaria faberi (SETFA) [6] = assay: Post-emergence herbicidal glasshouse test; conditions: post-emergence, 250 g/ha, 13 days after application
Protocol: as §1, §2

[7] = test system: Echinochloa crus-galli (ECHCG); assay: Pre-emergence herbicidal glasshouse test; conditions: pre-emergence, 250 g/ha, 13 days after application
Protocol: as §1, §2

[8] = test system: Ipomoea hederacea (IPOHE); assay: Pre-emergence herbicidal glasshouse test; conditions: pre-emergence, 250 g/ha, 13 days after application
Protocol: as §1, §2

[9] = test system: Amaranthus retoflexus (AMARE); assay: Pre-emergence herbicidal glasshouse test; conditions: pre-emergence, 250 g/ha, 13 days after application
Protocol: as §1, §2

Solanum nigrum (SOLNI) [10] = assay: Pre-emergence herbicidal glasshouse test; conditions: pre-emergence, 250 g/ha, 13 days after application
Protocol: as §1, §2

Lolium perenne (LOLPE) [11] = assay: Pre-emergence herbicidal glasshouse test; conditions: pre-emergence, 250 g/ha, 13 days after application
Protocol: as §1, §2

Setaria faberi (SETFA) [12] = assay: Pre-emergence herbicidal glasshouse test; conditions: pre-emergence, 250 g/ha, 13 days after application
Protocol: as §1, §2

**Q.** For `O=C(O)C(F)(F)c1ccccc1Cl` [Compound 1.011], which “percentage damage caused to the plant, five-point scale, ECHCG” value (shortened to “percentage damage caused … ECHCG”) [1] is on record?
**A.** The value was 1 (1=0-20%).

**Q.** What about the “percentage damage caused to the plant, five-point scale, IPOHE” value (“percentage damage caused … IPOHE” for short) [2] of the same molecule?
**A.** Its value is 3 (3=41-60%).

**Q.** What about the “percentage damage caused to the plant, five-point scale, AMARE” value (“percentage damage caused … AMARE” below) [3] of the same molecule?
**A.** The value was 5 (5=81-100%).

**Q.** What about the “percentage damage caused to the plant, five-point scale, SOLNI” value (shortened to “percentage damage caused … SOLNI”) (Solanum nigrum (SOLNI) [4]) of the same molecule?
**A.** The value was 5 (5=81-100%).

**Q.** And the “percentage damage caused to the plant, five-point scale, LOLPE” value (“percentage damage caused … LOLPE” for short) (Lolium perenne (LOLPE) [5])?
**A.** Its value is 1 (1=0-20%).

**Q.** And the “percentage damage caused to the plant, five-point scale, SETFA” value (“percentage damage caused … SETFA” below) (Setaria faberi (SETFA) [6])?
**A.** Its value is 1 (1=0-20%).

**Q.** What about the “percentage damage caused … ECHCG” value [7] of the same molecule?
**A.** Its value is 1 (1=0-20%).

**Q.** What about the “percentage damage caused … IPOHE” value [8] of the same molecule?
**A.** The value was 4 (4=61-80%).

**Q.** What about the “percentage damage caused … AMARE” value [9] of the same molecule?
**A.** Its value is 5 (5=81-100%).

**Q.** What about the “percentage damage caused … SOLNI” value (Solanum nigrum (SOLNI) [10]) of the same molecule?
**A.** Its value is 4 (4=61-80%).

**Q.** What about the “percentage damage caused … LOLPE” value (Lolium perenne (LOLPE) [11]) of the same molecule?
**A.** The value was 1 (1=0-20%).

**Q.** What about the “percentage damage caused … SETFA” value (Setaria faberi (SETFA) [12]) of the same molecule?
**A.** Its value is 2 (2=21-40%).

**Q.** What does the source list for `O=C(O)C(F)(F)c1cc(Cl)ccc1Cl` [Compound 1.012]?
**A.** percentage damage caused to the plant, five-point scale, ECHCG [1]: 1 (1=0-20%); percentage damage caused to the plant, five-point scale, IPOHE [2]: 3 (3=41-60%); percentage damage caused to the plant, five-point scale, AMARE [3]: 4 (4=61-80%); percentage damage caused to the plant, five-point scale, SOLNI (Solanum nigrum (SOLNI) [4]): 4 (4=61-80%); percentage damage caused to the plant, five-point scale, LOLPE (Lolium perenne (LOLPE) [5]): 1 (1=0-20%); percentage damage caused to the plant, five-point scale, SETFA (Setaria faberi (SETFA) [6]): 1 (1=0-20%); percentage damage caused to the plant, five-point scale, ECHCG [7]: 1 (1=0-20%); percentage damage caused to the plant, five-point scale, IPOHE [8]: 3 (3=41-60%); percentage damage caused to the plant, five-point scale, AMARE [9]: 4 (4=61-80%); percentage damage caused to the plant, five-point scale, SOLNI (Solanum nigrum (SOLNI) [10]): 3 (3=41-60%); percentage damage caused to the plant, five-point scale, LOLPE (Lolium perenne (LOLPE) [11]): 1 (1=0-20%); percentage damage caused to the plant, five-point scale, SETFA (Setaria faberi (SETFA) [12]): 1 (1=0-20%)

**Q.** How did the “percentage damage caused … ECHCG” value [1] turn out when `O=C(O)C(F)(F)c1cccc(F)c1Br` [Compound 1.032] was run?
**A.** The value was 1 (1=0-20%).

**Q.** What about the “percentage damage caused … IPOHE” value [2] of the same molecule?
**A.** Its value is 4 (4=61-80%).

**Q.** What about the “percentage damage caused … AMARE” value [3] of the same molecule?
**A.** The value was 4 (4=61-80%).

**Q.** And the “percentage damage caused … SOLNI” value (Solanum nigrum (SOLNI) [4])?
**A.** The value was 4 (4=61-80%).

**Q.** And the “percentage damage caused … LOLPE” value (Lolium perenne (LOLPE) [5])?
**A.** Its value is 1 (1=0-20%).

**Q.** And the “percentage damage caused … SETFA” value (Setaria faberi (SETFA) [6])?
**A.** Its value is 1 (1=0-20%).

**Q.** What about the “percentage damage caused … ECHCG” value [7] of the same molecule?
**A.** The value was 1 (1=0-20%).

**Q.** What about the “percentage damage caused … IPOHE” value [8] of the same molecule?
**A.** Its value is 4 (4=61-80%).

**Q.** What about the “percentage damage caused … AMARE” value [9] of the same molecule?
**A.** Its value is 4 (4=61-80%).

**Q.** What about the “percentage damage caused … SOLNI” value (Solanum nigrum (SOLNI) [10]) of the same molecule?
**A.** The value was 4 (4=61-80%).

**Q.** What about the “percentage damage caused … LOLPE” value (Lolium perenne (LOLPE) [11]) of the same molecule?
**A.** Its value is 1 (1=0-20%).

**Q.** What about the “percentage damage caused … SETFA” value (Setaria faberi (SETFA) [12]) of the same molecule?
**A.** Its value is 1 (1=0-20%).

**Q.** For `O=C(O)C(F)(F)c1cccc(Br)c1Cl` [Compound 1.037], which “percentage damage caused … ECHCG” value [1] is on record?
**A.** Its value is 4 (4=61-80%).

**Q.** What about the “percentage damage caused … IPOHE” value [2] of the same molecule?
**A.** The value was 4 (4=61-80%).

**Q.** And the “percentage damage caused … AMARE” value [3]?
**A.** The value was 5 (5=81-100%).

**Q.** And the “percentage damage caused … SOLNI” value (Solanum nigrum (SOLNI) [4])?
**A.** The value was 5 (5=81-100%).

**Q.** And the “percentage damage caused … LOLPE” value (Lolium perenne (LOLPE) [5])?
**A.** Its value is 3 (3=41-60%).

**Q.** And the “percentage damage caused … SETFA” value (Setaria faberi (SETFA) [6])?
**A.** Its value is 4 (4=61-80%).

**Q.** And the “percentage damage caused … ECHCG” value [7]?
**A.** Its value is 4 (4=61-80%).

**Q.** And the “percentage damage caused … IPOHE” value [8]?
**A.** The value was 4 (4=61-80%).

**Q.** And the “percentage damage caused … AMARE” value [9]?
**A.** The value was 5 (5=81-100%).

**Q.** What about the “percentage damage caused … SOLNI” value (Solanum nigrum (SOLNI) [10]) of the same molecule?
**A.** The value was 5 (5=81-100%).

**Q.** And the “percentage damage caused … LOLPE” value (Lolium perenne (LOLPE) [11])?
**A.** Its value is 3 (3=41-60%).

**Q.** What about the “percentage damage caused … SETFA” value (Setaria faberi (SETFA) [12]) of the same molecule?
**A.** The value was 4 (4=61-80%).
